Read-outs that look alike come from different tables or passages of the source.
Columns and labels:
[1] = system: wild cell line (CHO) of hamster ovarian cells; test: Anti-proliferative effect on CHO cells, counting of cell nuclei (Hoechst 33342); type: cell-based; conditions: 72 h treatment, no exogenous iron; read-out: IC50 CHO
Protocol: The in vitro efficacy of different Quilamines was tested on a wild cell line (CHO) of hamster ovarian cells having PTS and a mutant cell line CHO-MG without PTS. The two cell types CHO and CHO-MG were treated, 24 hours after being seeded in 96-well microplates, by concentrations of different Quilamines ranging from 0.1 to 400 micromoles per liter. The cytostatic (anti-proliferative) effects and cytotoxic effects of Quilamine after 72 hours' treatment of the cells were assessed respectively by counting cell nuclei after DNA marking by the Hoechst 33342 fluorescent intercalant dye and by analysis of membrane damage detected by the dosing of the lactate dehydrogenase activity (LHD) in the supernatants.
The IC50 inhibitor concentration corresponding to the concentration in Quilamines enables the inhibition at 50% of the cell proliferation was deduced from the dose-effect curves of numeration of the nuclei of the living cells on the CHO and CHO-MG cell lines. […] The lower the value of IC50, the greater the efficiency of the anti-proliferative effect of the tested chelators.
A comparison was made of the cytostatic or anti-proliferative action and the cytotoxic action for 72 h of treatment by Quilamine HQ1-44 and 8-hydroxyquinoline and ICL670, on the CHO cell lines in the presence and without the presence of exogenous iron, in the form of Fe(III) citrate in a concentration of 20 micromoles per liter. The results obtained are shown in FIG. 4, FIG. 4A relating to the results on cell viability and FIG. 4B relating to the results on cell toxicity.

Caco-2 cells [2] = test: Cell viability of proliferating Caco-2 cells (number of nuclei); type: cell-based, human; conditions: for IC50: no exogenous iron; for Constituent 1 (1-10 μM) % cell / Constituent 2 (10-100 μM) % cell: Caco-2 J4, no exogenous iron
Protocol: (§1) The action of Quilamines on the cell viability was analyzed on enterocyte cells of the Caco-2 tumor cell line derived from human colon carcinoma and compared with the action of ICL670 in the presence or absence of exogenous iron, after activation (DFMO) or competitive inhibition by spermidine, of the PTS. The operating conditions used are identical to those used for CHO/CHO-MG and HepG2 cells.
The results for the measurement of the anti-proliferative effect of Quilamines, and of ICL670 on the proliferating cells (cytostatic constituent) when there is no exogenous iron have been listed in the table 4 below.

Caco-2 cells [3] = test: LDH release of Caco-2 cells; type: cell-based, human; conditions: for % LDH/control 10 μM: Caco-2 J4, 10 μM; for % LDH/control 100 μM: Caco-2 J4, 100 μM
Protocol: as §1
As in the case of the other cell lines in proliferative phase presented here above, the dose-effect curves of the action of the Quilamines on the number of viable cells (number of nuclei) are biphase curves with a cytostatic constituent for concentration values of below 30 micromoles per liter and a cytotoxic constituent with release of LDH for concentration values above 30 micromoles per liter. Only this second cytotoxic constituent is observed when the cells of the Caco-2 cell line are treated after confluence (stopping of the proliferation).

[4] = Calcein test: shift of iron(III) complexated with calcein; type: physicochemical; conditions: pH 7.4
Protocol: The Quilamines HQ1-34, HQ1-344, HQ1-343, HQ1-33, HQ1-333, HQ1-44, HQ1-43, HQ1-444, HQ1-443 according to the invention were synthesized and tested. For each Quilamine, its capacity to shift iron (III) complexated with calcein was tested. Calcein is a fluorescent molecule which has a pFe3+ value of 20.3 with pH 7.4 close to the value measured for ligands of low molecular weight present in human or animal cells and complexating the labile iron pool, such as citrate which has a pFe^3+ value of 19.3 with pH of 7.4 (LIP). The fluorescence of calcein is detected on a microplate, in a concentration of 0.1 micromole per liter, in solution in a HEPES buffer (4-(2-hydroxyethyl)-1-piperazine ethane sulfonic acid) with pH 7.4, in a Fusion (Packard) type a microplate fluorescence reader, under excitation at 450 nanometers and analysis of the fluorescence emission at 515 nanometers. The fluorescence of calcein is extinguished in the presence of iron(III) in the form of hydrochloride (chloride) with a concentration of 1 micromole per liter. The addition of Quilamine in different concentrations ranging from 0.01 to 40 micromoles per liter prompts the shifting of iron(III) complexated with calcein towards Quilamine, resulting in a restoration of the fluorescence of the calcein. The dose-effect curves expressing the percentage of restoration of fluorescence of calcein (relative to the fluorescence of the free molecule in the absence of iron), for each Quilamine concentration, makes it possible to deduce the Quilamine concentration prompting the 50% shift of Fe(III) from calcein and the restoration of its associated fluorescence (CE50). These concentration values CE50 are inversely proportional to the chelating capacity of the chelators and the aptitude to mobilize iron from the LIP of the organism.
Comparatively, measurements were made, under the same conditions, of the efficacy in shifting iron(III) complexated with calcein of the two prior-art chelators, 8-hydroxyquinoline and O-trensox, the latter being currently considered to be the chelator having the greatest affinity for iron.

HepG2 cells = test: Anti-proliferative effect on HepG2 cells (nuclei count or SDH activity); type: cell-based, human; conditions: 72 h; for IC50: HepG2, absence of exogenous iron, read-out: IC50 associated with the cytostatic effect; for % of HepG2 cells concerned by the anti-proliferative effect: absence of exogenous iron
From the text: The majority of the Quilamines, like ICL670, show biphase dose-effect curves in the absence of exogenous iron, with an anti-proliferative constituent for concentration values of 1 to 10 micromoles per liter and a cytotoxic constituent associated with a release of LDH for concentration values of over 10 micromoles per liter. The percentage of HepG2 cells concerned by the anti-proliferative effect and the values of IC50 associated with this cytostatic effect in the absence of exogenous iron were listed in the table 4 below.
The implication of PTS in the cytostatic and cytotoxic action of Quilamines was analyzed in proliferating HepG2 hepatocyte tumor cells after activation of PTS or competitive inhibition of PTS by spermidine, a polyamine naturally present in the organism and most efficaciously captured by the PTS. The conditions of treatment by Quilamines are identical to those described in paragraph III-1.
Inhibiting ornithine decarboxylase (ODC), the key enzyme in the biosynthesis of polyamines, causes a depletion of intra-cell polyamines and an activation of PTS which enables the deficiency to be met. This activation of PTS is done by means of the ODC inhibitor, alpha-difluoromethyl ornithine (DFMO).
The competitive inhibition of PTS by spermidine is prompted by the co-treatment of the cells by the Quilamines in the presence of spermidine, in a concentration of 50 micromoles per liter.

[5] = system: mutant cell line CHO-MG without PTS; test: Anti-proliferative effect on CHO-MG cells without PTS, counting of cell nuclei; type: cell-based, hamster; conditions: for IC50: 72 h treatment; for Ratio IC50 (CHO-MG/CHO): selectivity of recognition by the PTS
From the text: The IC50 inhibitor concentration corresponding to the concentration in Quilamines enables the inhibition at 50% of the cell proliferation was deduced from the dose-effect curves of numeration of the nuclei of the living cells on the CHO and CHO-MG cell lines. These dose-effect curves are sometimes bi-phase curves as in the case of Quilamine HQ1-44 which has an anti-proliferative constituent (without concomitant release of LDH in supernatant) in the range of concentrations of 0.4 to 3 micromoles per liter and a second cytotoxic constituent accompanied by membrane toxicity expressed by the release of LDH for concentrations of over […]. The lower the value of IC50, the greater the efficiency of the anti-proliferative effect of the tested chelators.
Furthermore, the ratio of the IC50 inhibitor concentrations found for the CHO-MG and the CHO cell lines (Ratio IC50 (CHO-MG/CHO)) was computed for several Quilamines according to the invention. This ratio makes it possible to estimate the selectivity of recognition of the different chelators by the PTS: the higher the ratio, the more clearly is the chelator recognized by the PTS. When this ratio is close to 1, the tested chelator is not recognized or is little recognized by the PTS.

[6] = Caco-2 J4, cytostatic constituent, read-out: Constituent 1 (1-10 μM) IC50
[7] = Caco-2 J4, cytotoxic constituent, read-out: Constituent 2 (10-100 μM) IC50

Row | Structure (SMILES) | IC50 [1] | IC50 (Caco-2 cells [2]; [6]) | IC50 (Caco-2 cells [2]; [7]) | Constituent 1 (1-10 μM) % cell (Caco-2 cells [2]) | Constituent 2 (10-100 μM) % cell (Caco-2 cells [2]) | % LDH/control 10 μM (Caco-2 cells [3]) | % LDH/control 100 μM (Caco-2 cells [3]) | chelating capacity of HQ1-3 type compared with HQ1-4 type Quilamines [4] | IC50 (HepG2 cells) | % of HepG2 cells concerned by the anti-proliferative effect (HepG2 cells) | IC50 [5] | Ratio IC50 (CHO-MG/CHO) [5] | IC50 (Caco-2 cells [2]; Homo sapiens, Caco-2 J4, cytostatic constituent, read-out: Constituent 1 (1-10 μM) IC50) | IC50 (Caco-2 cells [2]; Homo sapiens, Caco-2 J4, cytotoxic constituent, read-out: Constituent 2 (10-100 μM) IC50) | IC50 (HepG2 cells; Homo sapiens)
1 | NCCCNCCCNCCCNCc1ccc2cccc(O)c2n1 [HQ1-333] | 15.1 µM | 3 µM | 60 µM | 20% | 80% | 112% | 169% | better chelating capacity | 1 µM | 12.5% | 277 µM | 18 |  |  | 
2 | NCCCNCCCCNCc1ccc2cccc(O)c2n1 [HQ1-43] |  | 1 µM | 30 µM | 7% | 93% | 93% | 240% |  | 1.75 µM | 10% |  |  |  |  | 
3 | NCCCNCCCNCc1ccc2cccc(O)c2n1 [HQ1-33] | 5.7 µM | 0.8 µM | 37 µM | 40% | 60% | 118% | 261% | better chelating capacity | 1.5 µM | 10% | 118 µM | 21 |  |  | 
4 | NCCCCNCCCNCc1ccc2cccc(O)c2n1 [HQ1-34] |  | 1 µM | 45 µM | 20% | 80% | 100% | 229% | better chelating capacity | 1.75 µM | 5% |  |  |  |  | 
5 | NCCCCNCCCCNCCCNCc1ccc2cccc(O)c2n1 [HQ1-344] |  |  |  | 22% | 78% | 95% | 120% | better chelating capacity |  | 10% |  |  | 3 µM | 75 µM | 1.75 µM
